The record followed here is patent publication US20250346585A1 (Alexion Pharmaceuticals, Inc., priority 2022, published 2025).

pIC50: −log10 of the molar value.

Human complement C1s enzyme, sequence (P09871 438-688 limits assumed): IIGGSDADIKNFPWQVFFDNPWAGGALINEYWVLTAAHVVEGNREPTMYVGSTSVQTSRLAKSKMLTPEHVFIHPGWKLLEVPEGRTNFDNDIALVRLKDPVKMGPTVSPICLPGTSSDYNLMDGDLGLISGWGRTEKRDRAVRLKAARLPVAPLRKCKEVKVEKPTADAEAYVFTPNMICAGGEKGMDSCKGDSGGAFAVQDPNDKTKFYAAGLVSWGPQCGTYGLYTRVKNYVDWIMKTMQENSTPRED
Human complement C1s enzyme, sequence (P09871 16-437 partner limits assumed): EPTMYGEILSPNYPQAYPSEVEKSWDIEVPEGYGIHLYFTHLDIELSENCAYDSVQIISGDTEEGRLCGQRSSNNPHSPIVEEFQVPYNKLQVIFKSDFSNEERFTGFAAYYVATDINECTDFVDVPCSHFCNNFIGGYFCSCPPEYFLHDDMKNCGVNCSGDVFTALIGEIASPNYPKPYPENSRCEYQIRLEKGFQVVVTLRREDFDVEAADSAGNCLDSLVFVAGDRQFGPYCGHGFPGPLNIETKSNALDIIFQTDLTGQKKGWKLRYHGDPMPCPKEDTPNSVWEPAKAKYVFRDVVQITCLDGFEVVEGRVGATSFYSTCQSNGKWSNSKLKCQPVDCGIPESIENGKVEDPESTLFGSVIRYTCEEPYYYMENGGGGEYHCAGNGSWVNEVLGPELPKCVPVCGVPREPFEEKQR

The test addresses Human complement C1s enzyme (Homo sapiens (Human), UniProt P09871). Kind of test: Human C1s enzyme assay. The settings on record: Human C1s enzyme assay of Example 3; read-out: IC50 (Stars). Format: biochemical. Put shortly: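 Purified serum-derived human C1s (1.16 nM final) preincubated 5 min at room temperature with compound in 50 mM Tris, 1 M NaCl, pH 7.5. Z-L-Lys-SBzl thioester substrate and DTNB added (100 μM each, final); A405 read every 30 s for 30 min. IC50 from nonlinear regression of reaction rates against compound concentration.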
In the case of `Cn1ncc2cc(-c3ccc(C(=O)NCC(=O)N4CC5(C[C@H]4C(=O)NCc4cc(C(=N)N)cs4)OCCO5)cc3)ccc21` [Compound 140, (S)—N-((4-carbamimidoylthiophen-2-yl)methyl)-7-((4-(1-methyl-1H-indazol-5-yl)benzoyl)glycyl)-1,4-dioxa-7-azaspiro[4.4]nonane-8-carboxamide], the pIC50 was more than 7.00. For `N=C(N)c1csc(CNC(=O)[C@@H]2CC3(CN2C(=O)CNC(=O)c2ccc(-c4ccccc4)c(F)c2)OCCO3)c1` [Compound 141, (S)—N-((4-carbamimidoylthiophen-2-yl)methyl)-7-((2-fluoro-[1,1′-biphenyl]-4-carbonyl)glycyl)-1,4-dioxa-7-azaspiro[4.4]nonane-8-carboxamide] the value was more than 7.00; for `O=C(NCC(=O)N1CC2(C[C@H]1C(=O)NCc1cc(NC3=NCCCN3)cs1)OCCO2)c1ccc(Oc2ccc(F)cc2)cc1` [Compound 142, (S)-7-((4-(4-fluorophenoxy)benzoyl)glycyl)-N-((4-((1,4,5,6-tetrahydropyrimidin-2-yl)amino)thiophen-2-yl)methyl)-1,4-dioxa-7-azaspiro[4.4]nonane-8-carboxamide], less than 6.00.

As for `NS(=O)(=O)c1cncc(-c2csc(CNC(=O)[C@@H]3CC4(CN3C(=O)CNC(=O)c3ccc(Oc5ccc(F)cc5)cc3)OCCO4)c2)c1` [Compound 143, (S)-7-((4-(4-fluorophenoxy)benzoyl)glycyl)-N-((4-(5-sulfamoylpyridin-3-yl)thiophen-2-yl)methyl)-1,4-dioxa-7-azaspiro[4.4]nonane-8-carboxamide], the negative-log IC50 (pIC50) is less than 6.00.

`N=C(N)c1csc(CNC(=O)[C@@H]2CC3(CN2C(=O)CNC(=O)c2ccc(-c4cc5ccccc5s4)cc2)OCCO3)c1` [Compound 145]: the pIC50 is more than 7.00. Under `N=C(N)c1csc(CNC(=O)[C@@H]2CC3(CN2C(=O)CNC(=O)c2cccc(-c4ccccc4)n2)OCCO3)c1` [Compound 146, (S)—N-((4-carbamimidoylthiophen-2-yl)methyl)-7-((6-phenylpicolinoyl)glycyl)-1,4-dioxa-7-azaspiro[4.4]nonane-8-carboxamide] stands more than 7.00; under `N=C(N)c1cc(CNC(=O)[C@@H]2CC3(CN2C(=O)CNC(=O)c2ccc(-c4ccccc4)cc2)OCCO3)cs1` [Compound 147, (S)-7-(([1,1′-biphenyl]-4-carbonyl)glycyl)-N-((5-carbamimidoylthiophen-3-yl)methyl)-1,4-dioxa-7-azaspiro[4.4]nonane-8-carboxamide], more than 7.00. For `COC(=O)/N=C(/N)c1csc([C@@H](C)NC(=O)[C@@H]2CC3(CN2C(=O)CNC(=O)c2ccc4c(c2)-c2ccccc2C4(F)F)OCCO3)c1` [Compound 148, methyl ((E)-amino(5-((R)-1-((S)-7-((9,9-difluoro-9H-fluorene-3-carbonyl)glycyl)-1,4-dioxa-7-azaspiro[4.4]nonane-8-carboxamido)ethyl)thiophen-3-yl)methylene)carbamate] the value was more than 7.00. As for `C[C@@H](NC(=O)[C@@H]1CC2(CN1C(=O)CNC(=O)c1ccc3c(c1)-c1ccccc1C3(F)F)OCCO2)c1cc(/C(N)=N\C(=O)Oc2ccccc2)cs1` [Compound 149, phenyl ((E)-amino(5-((R)-1-((S)-7-((9,9-difluoro-9H-fluorene-3-carbonyl)glycyl)-1,4-dioxa-7-azaspiro[4.4]nonane-8-carboxamido)ethyl)thiophen-3-yl)methylene)carbamate], the pIC50 is more than 7.00.

In the case of `C[C@@H](NC(=O)[C@@H]1CC2(CN1C(=O)CNC(=O)c1ccc3c(c1)-c1ccccc1C3(F)F)OCCO2)c1cc(-c2cn[nH]n2)cs1` [Compound 152, (S)—N—((R)-1-(4-(2H-1,2,3-triazol-4-yl)thiophen-2-yl)ethyl)-7-((9,9-difluoro-9H-fluorene-3-carbonyl)glycyl)-1,4-dioxa-7-azaspiro[4.4]nonane-8-carboxamide], the pIC50 is less than 6.00.

As for `C[C@@H](NC(=O)[C@@H]1C[C@](F)(CF)CN1C(=O)CNC(=O)c1ccc2c(c1)-c1ccccc1C2(C)C)c1cc(C(=N)N)cs1` [Compound 153, (2S,4R)—N—((R)-1-(4-carbamimidoylthiophen-2-yl)ethyl)-1-((9,9-dimethyl-9H-fluorene-3-carbonyl)glycyl)-4-fluoro-4-(fluoromethyl)pyrrolidine-2-carboxamide], the pIC50 was more than 7.00.

For `C[C@@H](NC(=O)[C@@H]1C[C@](F)(CF)CN1C(=O)CNC(=O)c1ccc(C(F)(F)c2ccccc2)cc1)c1cc(C(=N)N)cs1` [Compound 154, (2S,4R)—N—((R)-1-(4-carbamimidoylthiophen-2-yl)ethyl)-1-((4-(difluoro(phenyl)methyl)benzoyl)glycyl)-4-fluoro-4-(fluoromethyl)pyrrolidine-2-carboxamide], the pIC50 was more than 7.00.

For `N=C(N)c1cc(CNC(=O)[C@@H]2CC3(CN2C(=O)CNC(=O)c2ccc(-c4ccc(F)cc4F)cc2)OCCO3)cs1` [Compound 155, (S)-N-((5-carbamimidoylthiophen-3-yl)methyl)-7-((2′,4′-difluoro-[1,1′-biphenyl]-4-carbonyl)glycyl)-1,4-dioxa-7-azaspiro[4.4]nonane-8-carboxamide], the pIC50 is more than 7.00. In the case of `CO[C@@H]1C[C@@H](C(=O)NCc2cc(-c3c[nH]c([N+](=O)[O-])n3)cs2)N(C(=O)CNC(=O)c2ccc(Oc3ccc(F)cc3)cc2)C1` [Compound 156, (2S,4R)-1-((4-(4-fluorophenoxy)benzoyl)glycyl)-4-methoxy-N-((4-(2-nitro-1H-imidazol-4-yl)thiophen-2-yl)methyl)pyrrolidine-2-carboxamide], the pIC50 is less than 6.00. Under `O=C(NCC(=O)N1CC2(C[C@H]1C(=O)NCc1cc(-c3ncc[nH]3)cs1)OCCO2)c1ccc(Oc2ccc(F)cc2)cc1` [Compound 157, (S)-N-((4-(1H-imidazol-2-yl)thiophen-2-yl)methyl)-7-((4-(4-fluorophenoxy)benzoyl)glycyl)-1,4-dioxa-7-azaspiro[4.4]nonane-8-carboxamide] stands less than 6.00; under `C[C@@H](NC(=O)[C@@H]1CC2(CN1C(=O)CNC(=O)c1ccc(-c3ccc(F)cc3F)cc1)OCCO2)c1cc(C(=N)N)cs1` [Compound 158, (S)—N—((R)-1-(4-carbamimidoylthiophen-2-yl)ethyl)-7-((2′,4′-difluoro-[1,1′-biphenyl]-4-carbonyl)glycyl)-1,4-dioxa-7-azaspiro[4.4]nonane-8-carboxamide], more than 7.00. Take `C[C@@H](NC(=O)[C@@H]1C[C@@H](OC(F)(F)F)CN1C(=O)CNC(=O)c1ccc2c(c1)-c1ccccc1C2(F)F)c1cc(C(=N)N)cs1` [Compound 159, (2S,4R)—N—((R)-1-(4-carbamimidoylthiophen-2-yl)ethyl)-1-((9,9-difluoro-9H-fluorene-3-carbonyl)glycyl)-4-(trifluoromethoxy)pyrrolidine-2-carboxamide]: the pIC50 was more than 7.00. As for `C[C@@H](NC(=O)[C@@H]1CC2(CN1C(=O)CNC(=O)c1ccc3c(c1)-c1ccccc1C3O)OCCO2)c1cc(C(=N)N)cs1` (stereo partly drawn) [Compound 162, (8S)—N—((R)-1-(4-carbamimidoylthiophen-2-yl)ethyl)-7-((9-hydroxy-9H-fluorene-3-carbonyl)glycyl)-1,4-dioxa-7-azaspiro[4.4]nonane-8-carboxamide], the negative-log IC50 (pIC50) is more than 7.00. For `C[C@@H](NC(=O)[C@@H]1CC2(CN1C(=O)CNC(=O)c1ccc(-c3ccc(F)cc3)cn1)OCCO2)c1cc(C(=N)N)cs1` [Compound 163, (S)—N—((R)-1-(4-carbamimidoylthiophen-2-yl)ethyl)-7-((5-(4-fluorophenyl)picolinoyl)glycyl)-1,4-dioxa-7-azaspiro[4.4]nonane-8-carboxamide] the value was more than 7.00; for `C[C@@H](NC(=O)[C@@H]1CC2(CN1C(=O)CNC(=O)c1ccc(-c3ccc(F)cn3)cc1)OCCO2)c1cc(C(=N)N)cs1` [Compound 164, (S)—N—((R)-1-(4-carbamimidoylthiophen-2-yl)ethyl)-7-((4-(5-fluoropyridin-2-yl)benzoyl)glycyl)-1,4-dioxa-7-azaspiro[4.4]nonane-8-carboxamide], more than 7.00.

Turning to `N=C(N)c1csc(CNC(=O)[C@@H]2CC3(CN2C(=O)CNC(=O)c2ccc(-c4ccsc4)cc2)OCCO3)c1` [Compound 165, (S)-N-((4-carbamimidoylthiophen-2-yl)methyl)-7-((4-(thiophen-3-yl)benzoyl)glycyl)-1,4-dioxa-7-azaspiro[4.4]nonane-8-carboxamide], the pIC50 was more than 7.00. Under `C[C@@H](NC(=O)[C@@H]1CC2(CN1C(=O)CNC(=O)c1ccc(-c3cc(F)ccc3F)cc1)OCCO2)c1cc(C(=N)N)cs1` [Compound 166, (S)—N—((R)-1-(4-carbamimidoylthiophen-2-yl)ethyl)-7-((2′,5′-difluoro-[1,1′-biphenyl]-4-carbonyl)glycyl)-1,4-dioxa-7-azaspiro[4.4]nonane-8-carboxamide] stands more than 7.00. Under `C[C@@H](NC(=O)[C@@H]1C[C@@H](S(C)(=O)=O)CN1C(=O)CNC(=O)c1ccc(C(F)(F)c2ccccc2)cc1)c1cc(C(=N)N)cs1` [Compound 168, (2S,4R)—N—((R)-1-(4-carbamimidoylthiophen-2-yl)ethyl)-1-((4-(difluoro(phenyl)methyl)benzoyl)glycyl)-4-(methylsulfonyl)pyrrolidine-2-carboxamide] stands more than 7.00. Under `Cc1ccc(-c2ccc(C(=O)NCC(=O)N3CC4(C[C@H]3C(=O)N[C@H](C)c3cc(C(=N)N)cs3)OCCO4)cc2)c(C)c1` [Compound 169, (S)—N—((R)-1-(4-carbamimidoylthiophen-2-yl)ethyl)-7-((2′,4′-dimethyl-[1,1′-biphenyl]-4-carbonyl)glycyl)-1,4-dioxa-7-azaspiro[4.4]nonane-8-carboxamide] stands more than 7.00. In the case of `C[C@@H](NC(=O)[C@@H]1CC2(CN1C(=O)CNC(=O)c1ccc3[nH]c4ccccc4c3c1)OCCO2)c1cc(C(=N)N)cs1` [Compound 170, (S)-7-((9H-carbazole-3-carbonyl)glycyl)-N—((R)-1-(4-carbamimidoylthiophen-2-yl)ethyl)-1,4-dioxa-7-azaspiro[4.4]nonane-8-carboxamide], the pIC50 is more than 7.00.
